≈ marks a conversion by molar mass, not a printed value. Calls of active or inactive are those of the source. The rule behind the calls is not given here.
Assays:
Jurkat = assay: Cytotoxicity against human Jurkat cells after 48 hrs by cell titer-blue assay; format: functional, cell-based
[1] = Cytotoxicity against human HL60/MX2 cells after 48 hrs by cell titer-blue assay; format: functional, cell-based; conditions: HL60/MX2, 48 h
CCRF-CEM [2] = assay: Cytotoxicity against human CCRF-CEM cells after 48 hrs by cell titer-blue assay; format: functional, cell-based
[3] = Cytotoxicity against human CCRF-CEM/C2 cells after 48 hrs by cell titer-blue assay; format: functional, cell-based
HL-60 [4] = assay: Cytotoxicity against human HL60 cells after 48 hrs by cell titer-blue assay; format: functional, cell-based; conditions: HL-60, 48 h
CCRF-CEM [5] = assay: Ratio of GI50 for human CCRF-CEM/C2 cells to GI50 for human CCRF-CEM cells; format: functional
HL-60 [6] = assay: Ratio of GI50 for human HL60/MX2 cells to GI50 for human HL60 cells; format: functional
[7] = biological target: Induced myeloid leukemia cell differentiation protein Mcl-1 (Homo sapiens, UniProt Q07820); assay: Inhibition of recombinant His6-tagged MCL1 (171-326) expressed in Escherichia coli BL21 (DE3) and Flu-Bak peptide interaction by fluorescence polarization assay
Chain of Induced myeloid leukemia cell differentiation protein Mcl-1 (Q07820 whole entry): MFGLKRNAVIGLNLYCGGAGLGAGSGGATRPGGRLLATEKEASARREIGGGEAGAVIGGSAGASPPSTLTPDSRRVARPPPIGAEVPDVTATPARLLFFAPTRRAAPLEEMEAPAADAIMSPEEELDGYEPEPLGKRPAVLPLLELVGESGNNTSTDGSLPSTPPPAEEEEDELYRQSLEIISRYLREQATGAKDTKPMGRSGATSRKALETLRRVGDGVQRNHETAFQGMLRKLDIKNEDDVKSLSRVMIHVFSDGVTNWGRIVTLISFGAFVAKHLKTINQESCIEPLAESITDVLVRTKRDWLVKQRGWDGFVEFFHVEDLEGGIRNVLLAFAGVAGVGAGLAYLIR

DU-145 = assay: Cytotoxicity against human DU145 cells after 48 hrs by cell titer-blue assay; format: functional, cell-based; conditions: DU-145, 48 h
NALM-6 [8] = assay: Cytotoxicity against human NALM6 cells after 48 hrs by cell titer-blue assay; format: functional, cell-based
HCT-116 = assay: Cytotoxicity against human HCT116 cells after 48 hrs by cell titer-blue assay; format: functional, cell-based; conditions: HCT-116, 48 h
[9] = Cytotoxicity against mouse Hepa-1c1c7 cells after 48 hrs by cell titer-blue assay; format: functional, cell-based; conditions: Hepa-1c1c7, 48 h
[10] = Cytotoxicity against human SU-8686 cells after 48 hrs by cell titer-blue assay; format: functional, cell-based; conditions: SU.86.86, 48 h
MCF7 = assay: Cytotoxicity against human MCF7 cells after 48 hrs by cell titer-blue assay; format: functional, cell-based; conditions: MCF7, 48 h
NCI-H460 = assay: Cytotoxicity against human H460 cells after 48 hrs by cell titer-blue assay; format: functional, cell-based; conditions: NCI-H460, 48 h
REH = assay: Cytotoxicity against human REH cells after 48 hrs by cell titer-blue assay; format: functional, cell-based
NALM-6 [11] = assay: Induction of apoptosis in human NALM6 cells assessed as PARP cleavage at 50 uM after 24 hrs; format: functional, cell-based
Bcl-2-like protein 1 = Bcl-2-like protein 1 (Homo sapiens, UniProt Q07817); assay: Inhibition of recombinant His6-tagged Bcl-XL expressed in Escherichia coli BL21 (DE3) and Flu-Bak peptide interaction by fluorescence polarization assay
Chain of Bcl-2-like protein 1 (Q07817 whole entry): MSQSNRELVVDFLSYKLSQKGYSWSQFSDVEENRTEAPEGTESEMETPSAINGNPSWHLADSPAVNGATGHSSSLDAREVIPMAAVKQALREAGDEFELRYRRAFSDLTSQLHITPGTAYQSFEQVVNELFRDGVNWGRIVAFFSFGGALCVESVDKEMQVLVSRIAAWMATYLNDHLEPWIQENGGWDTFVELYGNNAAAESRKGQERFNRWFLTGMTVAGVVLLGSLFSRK

NALM-6 [12] = assay: Induction of apoptosis in human NALM6 cells assessed as caspase 3/7 activation at 0.4 to 100 uM after 24 hrs by fluorescence assay; format: functional, cell-based
NALM-6 [13] = assay: Induction of apoptosis in human NALM6 cells assessed as PARP cleavage at 3.125 to 25 uM after 24 hrs; format: functional, cell-based
[14] = Homo sapiens, NALM-6, 48 h, read-out: IC50
[15] = Homo sapiens, REH, 48 h, read-out: IC50

Structure (SMILES): CC(C)OC(=O)CC1C(C(=O)OC(C)C)=C(N)Oc2ccc(-c3ccccc3)cc21 (centres undefined)
- IC50 (Jurkat): 38.7 µM

Structure (SMILES): CCOC(=O)C1=C(N)Oc2ccc(-c3ccccc3)cc2C1CC(=O)N1CCOCC1 (centres undefined)
- IC50 (Jurkat): > 100 µM

Structure (SMILES): CC[C@]1(O)C[C@H]2CN(CCc3c([nH]c4ccccc34)[C@@](C(=O)OC)(c3cc4c(cc3OC)N(C=O)[C@H]3[C@@](O)(C(=O)OC)[C@H](OC(C)=O)[C@]5(CC)C=CCN6CC[C@]43[C@@H]65)C2)C1 [VINCRISTINE]
- EC50 [1]: 0.0609 µM
- EC50 (CCRF-CEM [2]): 0.597 µM
- EC50 [3]: 0.367 µM

Structure (SMILES): CCOC(=O)CC1C(C(=O)OCC)=C(N)Oc2ccc(-c3cccc4ccccc34)cc21 (centres undefined)
- IC50 (Jurkat): 5.83 µM

Structure (SMILES): Nc1nc2[nH]cnc2c(=S)[nH]1 [THIOGUANINE]
- EC50 [1]: 3.65 µM
- EC50 (HL-60 [4]): 3.9 µM
- EC50 (CCRF-CEM [2]): 0.87 µM
- EC50 [3]: 0.942 µM

Structure (SMILES): CC[C@@]1(O)C(=O)OCc2c1cc1n(c2=O)Cc2cc3ccccc3nc2-1 [CAMPTOTHECIN]
- RatioGI50 (CCRF-CEM [5]): 1879
- GI50 [3]: 0.0432 µM

Structure (SMILES): O=C1c2c(O)ccc(O)c2C(=O)c2c(NCCNCCO)ccc(NCCNCCO)c21 [MITOXANTRONE]
- GI50 [1]: 4.42 µg/mL (≈ 9.94 µM)
- GI50 (HL-60 [4]): 0.192 µg/mL (≈ 0.432 µM)
- RatioGI50 (HL-60 [6]): 23

Structure (SMILES): COc1cccc2c1C(=O)c1c(O)c3c(c(O)c1C2=O)C[C@@](O)(C(=O)CO)C[C@@H]3O[C@H]1C[C@H](N)[C@H](O)[C@H](C)O1 [DOXORUBICIN]
- EC50 [1]: 8.05 µM
- EC50 (HL-60 [4]): 1.51 µM
- EC50 (CCRF-CEM [2]): 0.465 µM
- EC50 [3]: 3.08 µM

Structure (SMILES): CCOC(=O)CC1C(C(=O)OCC)=C(N)Oc2ccc(-c3ccc(C(C)(C)C)cc3)cc21 (centres undefined)
- IC50 (Jurkat): 35.5 µM

Structure (SMILES): CCOC(=O)CC1C(C(=O)OCC)=C(N)Oc2ccc(-c3cc(O)cc(OC)c3)cc21 (centres undefined)
- IC50 (Jurkat): 4.2 µM

Structure (SMILES): CCOC(=O)CC1C(C(=O)OCC)=C(N)Oc2ccc(-c3cc(OC)c(OC)c(OC)c3)cc21 (centres undefined)
- IC50 (Jurkat): 13.6 µM

Structure (SMILES): CCOC(=O)CC1C(C(=O)OCC)=C(N)Oc2c(-c3ccccc3)cccc21 (centres undefined)
- IC50 (Jurkat): 49.8 µM

Structure (SMILES): Cc1cc2c(C(C)C)c(O)c(O)c(C=O)c2c(O)c1-c1c(C)cc2c(C(C)C)c(O)c(O)c(C=O)c2c1O [GOSSYPOL]
- Ki [7]: 6.54 µM

Structure (SMILES): CCOC(=O)CC1C(C(=O)OCC)=C(NC(C)=O)Oc2ccc(-c3ccccc3)cc21 (centres undefined)
- IC50 (Jurkat): 67.7 µM

Structure (SMILES): CCOC(=O)CC1C(C(=O)OCC)=C(N)Oc2ccc(-c3ccc4ccccc4c3)cc21 (centres undefined)
- IC50 (Jurkat): 18.7 µM

Structure (SMILES): CCOC(=O)CC1C(C(=O)OCC)=C(N)Oc2ccccc21 (centres undefined)
- IC50 (Jurkat): 91.4 µM

Structure (SMILES): CCOC(=O)C1=C(N)Oc2ccc(-c3ccccc3)cc2C1CC(=O)N1CCNCC1 (centres undefined)
- IC50 (Jurkat): 53.7 µM

Structure (SMILES): CN(C)CC[C@H](CSc1ccccc1)Nc1ccc(S(=O)(=O)NC(=O)c2ccc(N3CCN(Cc4ccccc4-c4ccc(Cl)cc4)CC3)cc2)cc1[N+](=O)[O-] [ABT 737]
- IC50 (DU-145): 27.6 µM
- IC50 (NALM-6 [8]; nalm-6): Not Active
- IC50 (Jurkat): 1.38 µM
- IC50 (HCT-116): 4.06 µM
- IC50 [9]: 8.68 µM
- IC50 [10]: 4.24 µM
- IC50 (MCF7): 21.3 µM
- IC50 (NCI-H460): 8.03 µM
- IC50 (REH; reh): Not Active

Structure (SMILES): CCOC(=O)CC1C(C(=O)OCC)=C(N(C(C)=O)C(C)=O)Oc2ccc(-c3ccccc3)cc21 (centres undefined)
- IC50 (Jurkat): 70.6 µM

Structure (SMILES): CCOC(=O)CC1C(C(=O)OCC)=C(N)Oc2ccc(Br)cc21 (centres undefined)
- IC50 (Jurkat): 57.3 µM

Structure (SMILES): CCCc1ccc2c(c1)C(CC(=O)OCC)C(C(=O)OCC)=C(N)O2 (centres undefined)
- IC50 (Jurkat): 57.3 µM

Structure (SMILES): CCOC(=O)CC1C(C(=O)OCC)=C(N)Oc2cccc(-c3ccccc3)c21 (centres undefined)
- IC50 (Jurkat): 44.3 µM

Structure (SMILES): CCOC(=O)CC1C(C(=O)OCC)=C(N)Oc2cc(-c3ccccc3)ccc21 (centres undefined)
- IC50 (Jurkat): 51.6 µM

Structure (SMILES): CCOC(=O)C1=C(N)Oc2ccc(-c3ccccc3)cc2C1CC(=O)N1CCCCC1 (centres undefined)
- IC50 (Jurkat): 58.5 µM

Structure (SMILES): CCOC(=O)CC1C(C(=O)OCC)=C(N)Oc2ccc(-c3ccccc3)cc21 (centres undefined)
- IC50 (DU-145): 14.7 µM
- IC50 (NALM-6 [8]; [14]): 44.2 µM
- IC50 (HCT-116): 18.5 µM
- IC50 [9]: 22.8 µM
- IC50 [10]: 18.7 µM
- Activity (NALM-6 [11]): inactive
- IC50 (MCF7): 18.9 µM
- Ki (Bcl-2-like protein 1): 344 µM
- IC50 (NCI-H460): 15.5 µM
- Activity (NALM-6 [12]): Dose-dependent effect
- IC50 (REH; [15]): 20.2 µM

Structure (SMILES): CCOC(=O)C1=C(N)Oc2ccc(-c3ccccc3)cc2C1CC(=O)N(CC)CC (centres undefined)
- IC50 (Jurkat): 49.6 µM

Structure (SMILES): CCOC(=O)CC1C(C#N)=C(N)Oc2ccc(-c3ccccc3)cc21 (centres undefined)
- IC50 (Jurkat): 52.5 µM

Structure (SMILES): CCOC(=O)CC1C(C(=O)OCC)=C(N)Oc2ccc(-c3cc(OC)cc(OC)c3)cc21 (centres undefined)
- IC50 (DU-145): 11.5 µM
- IC50 (NALM-6 [8]; [14]): 4.74 µM
- IC50 (Jurkat): 1.2 µM
- IC50 (HCT-116): 8.83 µM
- IC50 [9]: 10.9 µM
- IC50 [10]: 7.03 µM
- IC50 (MCF7): 15.5 µM
- Ki (Bcl-2-like protein 1): 1240 µM
- Ki [7]: 42000 µM
- IC50 (NCI-H460): 5.14 µM
- Activity (NALM-6 [12]): Dose-dependent effect
- Activity (NALM-6 [13]): Dose-dependent effect
- IC50 (REH; [15]): 4.16 µM

Structure (SMILES): CCOC(=O)CC1C(C(=O)OCC)=C(N)Oc2ccc(-c3cc(O)cc(O)c3)cc21 (centres undefined)
- IC50 (Jurkat): 18.3 µM

Structure (SMILES): Nc1ccn([C@@H]2O[C@H](CO)[C@@H](O)[C@@H]2O)c(=O)n1 [CYTARABINE]
- EC50 [1]: 0.261 µM
- EC50 (HL-60 [4]): 0.657 µM
- EC50 (CCRF-CEM [2]): 0.00561 µM
- EC50 [3]: 0.0228 µM
